Experimental data reported in patent US20250352525A1, “COMPOSITIONS AND METHODS OF TREATING TRAUMATIC BRAIN INJURY” (United States Government As Represented By The Department …, priority 2024, published 2025).

Tests used:
[1] = biological target: T1, mmSTING (Mus musculus, UniProt Q3TBT3); conditions: covalent small-molecule inhibitor; cited from earlier work
T1 sequence (Q3TBT3 1-378): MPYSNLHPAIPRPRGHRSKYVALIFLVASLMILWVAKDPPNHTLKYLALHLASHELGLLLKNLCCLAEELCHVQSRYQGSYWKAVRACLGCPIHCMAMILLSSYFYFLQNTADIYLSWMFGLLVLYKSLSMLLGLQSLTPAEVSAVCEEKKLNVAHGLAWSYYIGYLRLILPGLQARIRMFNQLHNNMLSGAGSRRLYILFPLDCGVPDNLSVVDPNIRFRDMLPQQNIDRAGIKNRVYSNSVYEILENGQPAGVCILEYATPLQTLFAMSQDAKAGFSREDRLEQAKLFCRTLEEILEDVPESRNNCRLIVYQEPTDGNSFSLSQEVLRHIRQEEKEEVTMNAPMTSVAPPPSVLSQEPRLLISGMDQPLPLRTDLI

[2] = biological target: hsSTING (Homo sapiens, UniProt Q86WV6); conditions: covalent small-molecule inhibitor; cited from earlier work
[3] = test system: Irf-3; test: qPCR for Irf-3 in PolyIC-stimulated BV2 cells; format: cell-based; conditions: dosed 2 hours, then PolyIC 24 hours
Experimental: (§1) Experimental design: BV2 cells were plated in a 6-well plate and allowed to adhere overnight. Plates were dosed with clonixin butyl ketone or H151 for 2 hours and then PolyIC for 24 hours to induce inflammation. qPCR was performed to measure expression of CCL20 and IL-6 inflammatory genes and immunomodulatory Irf-3 gene.

[4] = test system: CCL20; test: qPCR for CCL20 in PolyIC-stimulated BV2 cells; format: cell-based; conditions: dosed 2 hours, then PolyIC 24 hours
Experimental: as §1

[5] = test system: pSTING; test: Immunocytochemistry of pSTING in poly (I:C)-stimulated HT22 hippocampal cells, integrated density (ImageJ); format: cell-based, mouse; conditions: pre-treated 2 h, then poly (I:C) 6 h, normalized to blank
Experimental: Cells were untreated, or pre-treated with vehicle or STING-inhibitory compounds H151, a ketone analog of clonixin (e.g., clonixin butyl ketone), clonixeril (CXL) for 2 h and then treated with poly (I:C) for 6 h. Cells were then stained with DAPI (blue, top row) to visualize nuclei and pSTING antibody (red, bottom 5 row). Images are presented separately for enhanced clarity. Scale bar 100 μm.
Error bars represent mean ±standard deviation (SD). Separate channels were quantified by ImageJ for pSTING (red) and DAPI (blue) pixel density. A ratio of red signal to blue signal was calculated for each image. Ratios were averaged for each experimental group and normalized to the blank (control) group.

[6] = test system: IL-6; test: qPCR for IL-6 in PolyIC-stimulated BV2 cells; format: cell-based; conditions: dosed 2 hours, then PolyIC 24 hours
Experimental: as §1

[7] = test system: IBA1; test: Immunocytochemistry of IBA1 in poly (I:C)-stimulated BV2 microglial cells, integrated density (ImageJ); format: cell-based; conditions: pre-treated 2 h, then poly (I:C) 6 h, normalized to blank
Experimental: (§2) Experimental design: IMG or BV2 cells were plated in a 96-well or 6-well plate and allowed to adhere overnight. Plates were dosed with clonixeril for 2 hours and then LPS or polyinosinic-polycytidylic acid (polyIC) for 24 hours to induce inflammation. Ionized calcium-binding adaptor molecule 1 (IBA1) and pSTING expression were imaged and immunohistochemistry was measured (ImageJ).
Controls used are a blank (untreated); and 25 ng/ml poly (I:C) treatment for 6 h. Immunocytochemistry of BV2 cells pre-treated with a known STING inhibitor H151, clonixeril or a ketone analogue of clonixin (e.g., clonixin butyl ketone) for 2 h and then treated with poly (I:C) for 6 h, stained with IBA1 antibody (red) and DAPI (blue) to visualize nuclei. […] Separate channels were quantified by ImageJ for IBA1 (red) and DAPI (blue) pixel density. A ratio of red signal to blue signal was calculated for each image. Ratios were averaged for each experimental group and normalized to the blank (control) group.

[8] = test system: phosphorylated STING (pSTING); test: Western blot for pSTING in poly (I:C)-stimulated HT22 hippocampal cells; format: cell-based, mouse; conditions: 100 pM pre-treatment 2 h, then poly (I:C) 6 h
Experimental: Immunoblot analysis of phosphorylated STING (pSTING) and β-actin in HT22 mouse hippocampal cells. Cells were pre-treated with 100 pM ketone analog of clonixin (e.g., clonixin butyl ketone) for 2 h, followed by 6 h stimulation with poly (I:C). Cell lysates were harvested at indicated time points using RIPA buffer supplemented with 1× Halt Protease and Phosphatase Inhibitor Cocktail, quantified via Bradford assay, and normalized to 20 μg protein per well. Lysates were resolved by SDS-PAGE and probed with rabbit polyclonal anti-pSTING and anti-β-actin antibodies.

[9] = test system: pSTING; test: Immunocytochemistry of pSTING in LPS-stimulated IMG cells, integrated density (ImageJ); format: cell-based; conditions: pre-treated 2 h, then LPS 24 h, normalized to blank
Experimental: as §2
(§3) Cells were untreated, or pre-treated with vehicle or STING-inhibitory compound clonixeril for 2 h and then treated with LPS for 24 h. Cells were then stained with DAPI (blue) to visualize nuclei, IBA1 or pSTING antibody (red). Images are presented separately for enhanced clarity. […] Error bars represent mean ±standard deviation (SD). Separate channels were quantified by ImageJ for IBA1 or pSTING (red) and DAPI (blue) pixel density. A ratio of red signal to blue signal was calculated for each image. Ratios were averaged for each experimental group and normalized to the blank (control) group.

[10] = test system: IBA1; test: Immunocytochemistry of IBA1 in LPS-stimulated IMG cells, integrated density (ImageJ); format: cell-based; conditions: pre-treated 2 h, then LPS 24 h, normalized to blank
Experimental: as §2, §3

Chain of hsSTING (Q86WV6 whole entry H232R): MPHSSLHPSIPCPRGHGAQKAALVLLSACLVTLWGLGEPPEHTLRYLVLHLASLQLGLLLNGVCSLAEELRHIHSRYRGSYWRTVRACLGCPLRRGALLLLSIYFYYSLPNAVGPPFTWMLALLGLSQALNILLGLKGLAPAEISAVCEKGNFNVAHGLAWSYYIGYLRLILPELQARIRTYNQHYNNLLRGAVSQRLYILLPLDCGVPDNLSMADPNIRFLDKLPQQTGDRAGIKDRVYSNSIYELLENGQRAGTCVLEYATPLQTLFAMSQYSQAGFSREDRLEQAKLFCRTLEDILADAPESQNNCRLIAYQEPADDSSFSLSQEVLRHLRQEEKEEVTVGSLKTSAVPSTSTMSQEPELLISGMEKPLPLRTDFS

Compound | inhibition of mmSTING [1] | inhibition of hsSTING [2] | expression of interferon regulatory gene Irf3 (qPCR) [3] | CCL20 expression at 1 picomolar concentration [4] | expression of CCL20 (qPCR) [4] | pSTING (immunocytochemistry, integrated density) [5] | expression of IL-6 (qPCR) [6] | IBA1 integrated density [7] | poly (I:C)-induced STING phosphorylation (Western blot, normalized to β-actin) [8] | IL-6 expression at 1 picomolar concentration ([6]; 1 picomolar) | pSTING integrated density [9] | IBA1 integrated density [10]
CCCCCCc1ccc(NC(=O)c2ccc([N+](=O)[O-])o2)cc1 [C-171, N-(4-hexylphenyl)-5-nitro-2-furancarboxamide] | efficiently inhibits | efficiently inhibits | – | – | – | – | – | – | – | – | – | –
CCc1ccc(NC(=O)Nc2c[nH]c3ccccc23)cc1 [H151] | – | – | reduced significantly | but not H151 showed a significant reduction | significantly decreased | reduction | significantly decreased | reduction | – | – | – | –
CCCCC(=O)c1cccnc1Nc1cccc(Cl)c1C [clonixin butyl ketone, {2-[(3-chloro-2-methylphenyl)amino]pyridin-3-yl}-1-pentanone] | – | – | reduced significantly | significant reduction | significantly decreased | reduction | significantly decreased | reduction | inhibition | significant reduction | – | –
clonixeril | – | – | – | – | – | reduction | – | reduction | – | – | reduction | reduction
